Test results published in publication PMC4199632, “Exploring the Anti-Cancer Activity of Novel Thiosemicarbazones Generated through the Combination of Retro-Fragments: Dissection of Critical Structure-Activity Relationships” (PLoS ONE, 2014).

How the values were obtained:
Type in all cases: cell-based, human
[1] = test system: HCT116 p53+/+ colon cancer cells; assay: Proliferation assay (MTS, 96 h); settings: for IC50: Homo sapiens, HCT-116, 96 h incubation, MTS, mean ±SD (3 experiments); for Therapeutic index NHDF vs. HCT116 p53+/+: NHDF cell IC50 divided by HCT116 p53+/+ IC50
How it was run: (§1)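 HCT116 p53+/+, HCT116 p53−/− and NHDF cells were seeded 24 h before a 96 h compound exposure at 37 °C, with final DMSO <0.05%. Viability was read by MTS absorbance at 490 nm after 1 h; IC50 was the concentration reducing absorbance to 50% of untreated control.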

[2] = test system: HCT116 p53−/− colon cancer cells; assay: Proliferation assay (MTS, 96 h); settings: for IC50: Homo sapiens, HCT-116, 96 h, 96 h incubation, MTS, mean ±SD (3 experiments); for Therapeutic index NHDF vs. HCT116 p53−/−: NHDF cell IC50 divided by HCT116 p53−/− IC50
How it was run: as §1

SK-N-MC cells = assay: Mobilization of cellular 59Fe (59Fe efflux); settings: chelator 25 µM; for 59Fe mobilization efficacy compared with controls: SK-N-MC cells; for 59Fe mobilization (% of cellular 59Fe released): 3 h/37°C, prelabeled SK-N-MC cells, control medium 4±1%
Protocol: The iron transport protein, Tf (Sigma-Aldrich), was labeled with ^59Fe (PerkinElmer Life and Analytical Sciences, Boston, MA) to form ^59Fe2-Tf using standard methods, [7]. Unbound ^59Fe was removed by passage through a Sephadex G25 column and was followed by exhaustive dialysis, [7].
To examine the ability of the novel chelators to mobilize ^59Fe from SK-N-MC cells, ^59Fe efflux experiments were performed using established techniques, [51]. The monolayer of SK-N-MC cells was prelabeled for 3 h at 37°C in MEM containing ^59Fe2-Tf (0.75 µM). Cells were then washed four times with ice-cold PBS and incubated for a further 3 h at 37°C with medium alone (the control) or medium containing the chelator (25 µM). After this incubation, the overlying medium that contained the released ^59Fe was separated from the cells using a Pasteur pipette. Radioactivity was measured in both the cells and supernatant using a γ-scintillation counter (Wallac Wizard 3, Turku, Finland). In these studies, the novel ligands were compared to the previously characterized chelators, DFO and Dp44mT, as their ability to mobilize cellular ^59Fe has been extensively examined in these cells, [12], [17], [18], [50].
Figure 6 Effect of (A) series 1, (B) series 2, (C) series 3, (D) series 4, (E) series 5 and (F) series 6 chelators, relative to the controls DFO and Dp44mT, on ^59Fe mobilization from prelabeled SK-N-MC cells. Cells were incubated for 3 h/37°C with ^59Fe-transferrin (0.75 µM), washed 4 times with ice-cold PBS and then reincubated for 3 h/37°C in the presence or absence of the chelators (25 µM). Release of ^59Fe was then assessed using a γ-scintillation counter. Results are mean ±SD (3 experiments).

IC50 [1] [nM] | IC50 [2] [nM] | Structure (SMILES) | Therapeutic index NHDF vs. HCT116 p53+/+ [1] | Therapeutic index NHDF vs. HCT116 p53−/− [2] | 59Fe mobilization efficacy compared with controls (SK-N-MC cells) | 59Fe mobilization (% of cellular 59Fe released) (SK-N-MC cells)
> 25000 | > 25000 | CN(C(=S)N/N=C/c1ccccc1O)C1CCCCC1 [6f] |  |  |  | 
42 ± 3 | 90 ± 40 | S=C(N/N=C/c1ccc2ccccc2n1)N1CCN(c2ccccc2)CC1 [2b] | 0.8 | 0.4 | comparable release of ^59Fe relative to DFO | 
2 ± 1 | 5 ± 2 | CN(C)C(=S)NN=C(c1ccccn1)c1ccccn1 [Dp44mT, di-2-pyridylketone 4,4-dimethyl-3-thiosemicarbazone, reference compound] | 7690 | 3076 |  | 35±2%
1240 ± 450 | 1020 ± 540 | CN(C(=S)N/N=C/c1cnc2ccccc2n1)C1CCCCC1 [5f] |  |  | comparable release of ^59Fe relative to DFO | 
1440 ± 690 | 3550 ± 1230 | CCN1CCN(C(=S)N/N=C/c2ccc3ccccc3n2)CC1 [2a] |  |  | comparable ^59Fe mobilization efficacy to that of the control medium | 
38 ± 3 | 31 ± 3 | S=C(NN=C(c1ccccn1)c1ccccn1)N1CCN(c2cnccn2)CC1 [1e] |  |  |  | 31–39%
26 ± 1 | 35 ± 3 | CN(C(=S)N/N=C/c1ccc2ccccc2n1)C1CCCCC1 [2f] | 0.6 | 0.4 | comparable release of ^59Fe relative to DFO | 

Structure (SMILES) | IC50 [1] [nM] | IC50 [2] [nM] | Therapeutic index NHDF vs. HCT116 p53+/+ [1] | Therapeutic index NHDF vs. HCT116 p53−/− [2] | 59Fe mobilization efficacy compared with controls (SK-N-MC cells) | 59Fe mobilization (% of cellular 59Fe released) (SK-N-MC cells)
CC(=O)N(O)CCCCCNC(=O)CCC(=O)N(O)CCCCCNC(=O)CCC(=O)N(O)CCCCCN [DFO, desferrioxamine, reference compound] | > 25000 | > 25000 |  |  |  | 11±2%
